This is an account of results in patent US6090834A, “Substituted oxazoles for the treatment of inflammation” (G.D. Searle & Co., priority 1998, dated 2000).

One experiment has as its system carrageenan foot edema. Put plainly: Rat Carrageenan Foot Pad Edema Test. The conditions noted are these: oral, 3 h after carrageenan. In kind it is in vivo, Male Sprague-Dawley rats. The procedure: Rat Carrageenan Foot Pad Edema Test
Male Sprague-Dawley rats were selected in each group so that the average body weight was as close as possible. Rats were fasted with free access to water for over sixteen hours prior to the test. […] One hour later a subplantar injection of 0.1 mL of 1% solution of carrageenan/sterile 0.9% saline was administered and the volume of the injected foot was measured with a displacement plethysmometer connected to a pressure transducer with a digital indicator. Three hours after the injection of the carrageenan, the volume of the foot was again measured.
(In general: The carrageenan paw model is a standard test of acute inflammation.)

The subject of experiment [1] is hyperalgesic foot withdrawal. The experiment in a line: Rat Carrageenan-induced Analgesia Test. In kind it is in vivo, Male Sprague-Dawley rats. The settings on record: oral, hyperalgesic foot withdrawal 3 h after carrageenan. The procedure: Rat Carrageenan-induced Analgesia Test
The analgesia test using rat carrageenan was performed with materials, reagents and procedures essentially as described by Hargreaves, et al., (Pain, 32, 77 (1988)). Male Sprague-Dawley rats were treated as previously described for the Carrageenan Foot Pad Edema test. Three hours after the injection of the carrageenan, the rats were placed in a special plexiglass container with a transparent floor having a high intensity lamp as a radiant heat source, positionable under the floor. After an initial twenty minute period, thermal stimulation was begun on either the injected foot or on the contralateral uninjected foot. A photoelectric cell turned off the lamp and timer when light was interrupted by paw withdrawal. The time until the rat withdraws its foot was then measured. The withdrawal latency in seconds was determined for the control and drug-treated groups, and percent inhibition of the hyperalgesic foot withdrawal determined.

Another experiment relates to COX-1. Put plainly: COX-1 activity in vitro (PGE2 formed, ELISA). In kind it is biochemical, human or murine. The settings on record: recombinant enzyme, arachidonic acid 10 μM, pH 8.0; read-out: COX-1 ID50. The procedure:
(§1) Evaluation of COX I and COX II activity in vitro
(§2) The COX-2 inhibition activity of the compounds of this invention illustrated in the Examples was determined by the following methods. a. Preparation of recombinant COX baculoviruses
(§3) Recombinant COX-1 and COX-2 were prepared as described by Gierse et al, [J. Biochem., 305, 479-84 (1995)]. A 2.0 kb fragment containing the coding region of either human or murine COX-1 or human or murine COX-2 was cloned into a BamH1 site of the baculovirus transfer vector pVL1393 (Invitrogen) to generate the baculovirus transfer vectors for COX-1 and COX-2 in a manner similar to the method of D. R. O'Reilly et al (Baculovirus Expression Vectors: A Laboratory Manual (1992)). Recombinant baculoviruses were isolated by transfecting 4 μg of baculovirus transfer vector DNA into SF9 insect cells (2×10^8) along with 200 ng of linearized baculovirus plasmid DNA by the calcium phosphate method. See M. D. Summers and G. E. Smith, A Manual of Methods for Baculovirus vectors and Insect Cell Culture Procedures, Texas Agric. Exp. Station Bull. 1555 (1987). Recombinant viruses were purified by three rounds of plaque purification and high titer (10^7 -10^8 pfu/ml) stocks of virus were prepared. For large scale production, SF9 insect cells were infected in 10 liter fermentors (0.5×10^6 /ml) with the recombinant baculovirus stock such that the multiplicity of infection was 0.1. After 72 hours the cells were centrifuged and the cell pellet homogenized in Tris/Sucrose (50 mM: 25%, pH 8.0) containing 1% 3-[(3-cholamidopropyl)dimethylammonio]-1-propanesulfonate (CHAPS). The homogenate was centrifuged at 10,000×G for 30 minutes, and the resultant supernatant was stored at -80° C. before being assayed for COX activity. […]
(§4) b. Assay for COX-1 and COX-2 activity
(§5) COX activity was assayed as PGE2 formed/μg protein/time using an ELISA to detect the prostaglandin released. CHAPS-solubilized insect cell membranes containing the appropriate COX enzyme were incubated in a potassium phosphate buffer (50 mM, pH 8.0) containing epinephrine, phenol, and heme with the addition of arachidonic acid (10 μM). Compounds were pre-incubated with the enzyme for 10-20 minutes prior to the addition of arachidonic acid. Any reaction between the arachidonic acid and the enzyme was stopped after ten minutes at 37° C./room temperature by transferring 40 μl of reaction mix into 160 μl ELISA buffer and 25 μM indomethacin. The PGE2 formed was measured by standard ELISA technology (Cayman Chemical).
On the technique in general: ELISA stands for enzyme-linked immunosorbent assay.

The subject of the next experiment is COX-2. The experiment in a line: COX-2 activity in vitro (PGE2 formed, ELISA). The settings on record: recombinant enzyme, arachidonic acid 10 μM, pH 8.0; read-out: COX II ID50. In kind it is biochemical, human or murine. Here is the method: as §1, §2, §3, §4, §5

Regarding `CS(=O)(=O)c1ccc(-c2oc(CCc3ccccc3)nc2-c2ccc(F)cc2)cc1` [Example 1, 4-(4-fluorophenyl)-2-(2-phenylethyl)-5-(4-(methylsulfonyl)phenyl)oxazole], the “RAT PAW EDEMA % Inhibition (* @ 20 mg/kg body weight)” value in the experiment on carrageenan foot edema (20 mg/kg body weight) amounted to 41%. In addition, the “ANALGESIA % Inhibition @ 20 mg/kg body weight” value in experiment [1] was 44%. Further, the figures for the IC50 with COX-1 and in the experiment on COX-2 were 6.9 µM and below 100 nM, respectively.

With `COc1nc(-c2ccccc2)c(-c2ccc(S(N)(=O)=O)cc2)o1` [Example 55, 4-[2-methoxy-4-phenyl-5-oxazolyl]benzenesulfonamide], the “RAT PAW EDEMA % Inhibition (1 @ 30 mg/kg body weight)” value in the experiment on carrageenan foot edema was 37%. In addition, the IC50 was 9.7 µM in the experiment on COX-1 and below 100 nM with COX-2.

Take `COc1ccc(-c2oc(C(F)(F)F)nc2-c2ccc(S(C)(=O)=O)cc2)cc1F` [Example 70, 5-(3-fluoro-4-methoxyphenyl)-4-(4-methylsulfonylphenyl)-2-trifluoromethyloxazole]: the “RAT PAW EDEMA % Inhibition (1 @ 30 mg/kg body weight)” value with carrageenan foot edema amounted to 46%. The values for the IC50 in the experiment with COX-1 and in the experiment on COX-2 were above 100 µM and below 100 nM, respectively.
